Our source for the LC retention time values is the RepoRT retention time repository (doi:10.1016/j.aca.2019.02.001).

The nature of this data set: RP, Agilent ZORBAX Eclipse XDB-C18, 100 × 2.1 mm, 1.8 µm, 50 °C, 0.4 mL/min, estimated dead time 0.55 min; A: water + 0.1% formic acid; B: methanol; gradient (min/%B) 0/30 2/30 5/52 15/65 20/78 22.5/78 29/90 38/100. Conditions: stereoisomer not certain.

With `NCCCCNCCCN`, the LC retention time is 9.8 min. In the case of `NC(N)=NCCCC(N)C(=O)O` (configuration not stated), the LC retention time is 3.02 min. Turning to `NC(Cc1c[nH]c2ccccc12)C(=O)O` (configuration not stated), the LC retention time is 9.89 min. With `NCCc1c[nH]c2ccccc12`, the LC retention time was 13.4 min. Then `COc1cc2c(CCNC(C)=O)c[nH]c2cc1O`, with 11.9 min. With `COc1ccc2[nH]cc(CC(=O)O)c2c1`, the LC retention time was 12.1 min. As for `CCCC(=O)O`, the LC retention time was 11.8 min. `CC(CCC(=O)O)C1CCC2C3CCC4CC(O)CCC4(C)C3CCC12C` (configuration not stated): the LC retention time is 26.2 min. Consider `CCCCCCC=CCCCCCCCC(=O)O`, for which the LC retention time is 27.9 min. `O=C(O)c1cc(=O)c2ccccc2[nH]1`: the LC retention time is 17.4 min. Take `CCC(C)C(N)C(=O)O` (configuration not stated): the LC retention time was 11.4 min.

As to `NCCO`, the LC retention time is 5.87 min. For the compound `CCCCCCCCCCCCCCCC(=O)O`, the LC retention time is 29.8 min.

Consider `CCCCCCCCC(=O)O`, for which the LC retention time was 23 min. Consider `NC(CO)C(=O)O` (configuration not stated), for which the LC retention time is 5.14 min. Consider `NC(Cc1ccccc1)C(=O)O` (configuration not stated), for which the LC retention time is 11.8 min.

As for `CCCCCCCCCC(=O)O`, the LC retention time is 24.3 min.

On to `CCCCC(CC)C(=O)O` (configuration not stated), for which the LC retention time is 20.2 min. Next, `O=C(O)c1cccnc1C(=O)O`: 8.32 min; `CCCCC(C)CCC(=O)O` (configuration not stated): 22.5 min. Consider `CCCCCCCCCCCCCCC(=O)O`, for which the LC retention time was 28.4 min. Then `CC(=O)O`, with 8.11 min. For the compound `CC(C)C(=O)O`, the LC retention time was 11.4 min.

Consider `CCCCCCC(=O)O`, for which the LC retention time was 19.7 min. `CC(O)C(N)C(=O)O` (configuration not stated): the LC retention time was 6.29 min.

As to `NC(Cc1ccc(O)cc1)C(=O)O` (configuration not stated), the LC retention time is 20.5 min.

Turning to `CCCCCCCCC=CCCCCCCCCCC(=O)O`, the LC retention time is 31.8 min. `CCCCCCCCCCCCCC(=O)O`: the LC retention time is 27.3 min. For `CCCCCCCCCCCC(=O)O`, the LC retention time was 25.6 min. For `CCCCCC=CCC=CCC=CCC=CCCCC(=O)O`, the LC retention time was 28.7 min.

Consider `CCCCCCCCC=CCCCCCCCC(=O)O`, for which the LC retention time was 30.5 min. In the case of `CCCCC(C)C(=O)O` (configuration not stated), the LC retention time was 18.9 min. Regarding `CCCCCCCCCCCCCCCCCCC(=O)O`, the LC retention time is 32.1 min. Next, `CC(CCC(=O)O)C1CCC2C3CCC4CC(O)CCC4(C)C3CC(O)C12C` (configuration not stated): 25.2 min. As for `O=C(O)C(O)Cc1c[nH]c2ccccc12` (configuration not stated), the LC retention time was 12.1 min.

Consider `CCCCCCCCC=CCCCCCCCCCCCCCC(=O)O`, for which the LC retention time is 34.2 min. Then `CC(C)CCC(=O)O`, with 17.1 min. As to `NCC(=O)O`, the LC retention time was 5.85 min. For the compound `O=C(O)Cc1c[nH]c2ccccc12`, the LC retention time is 13.4 min.

On to `CC(CCC(=O)O)C1CCC2C3C(O)CC4CC(O)CCC4(C)C3CCC12C` (configuration not stated), for which the LC retention time was 24.9 min.

Turning to `CCCCCCCC(=O)O`, the LC retention time is 21.4 min. For `CSCCC(N)C(=O)O` (configuration not stated), the LC retention time was 9.06 min. Take `Nc1c(O)cccc1C(=O)CC(N)C(=O)O` (configuration not stated): the LC retention time was 21 min.

Consider `NCCCCC(N)C(=O)O` (configuration not stated), for which the LC retention time is 16.2 min. For the compound `NC(Cc1cnc[nH]1)C(=O)O` (configuration not stated), the LC retention time is 2.35 min. As for `Nc1c(O)cccc1C(=O)O`, the LC retention time is 15.7 min. In the case of `CCCCCCCCCCCCC(=O)O`, the LC retention time was 26.4 min. Consider `NCCCNCCCCNCCCN`, for which the LC retention time is 6.5 min. On to `CCCCCCCCC=CCCCCCCCCCCCC(=O)O`, for which the LC retention time is 32.9 min. Next, `CCC=CCC=CCC=CCC=CCC=CCC=CCCC(=O)O`: 28.5 min. Turning to `CCC(=O)O`, the LC retention time was 9.67 min. Turning to `CCCCCCCCCCCCCCCCCC(=O)O`, the LC retention time is 31.5 min. In the case of `CC(C)CC(=O)O`, the LC retention time is 14 min. In the case of `CCCCCC(=O)O`, the LC retention time is 17.4 min. As for `CCCCCCCCCCCCCCCCCCCCC(=O)O`, the LC retention time is 33.4 min.

Take `CCC(C)CC(=O)O` (configuration not stated): the LC retention time is 16.7 min. Regarding `CCCCCCCCCCCCCCCCCCCCCC(=O)O`, the LC retention time was 34 min. With `CCC=CCC=CCC=CCCCCCCCC(=O)O`, the LC retention time was 27.5 min. As to `O=C(O)C(=O)Cc1c[nH]c2ccccc12`, the LC retention time is 15.5 min. Consider `O=C(O)C1CCCN1` (configuration not stated), for which the LC retention time is 8.37 min.

For `CCCCC(=O)O`, the LC retention time was 14.5 min. Regarding `NC(CS)C(=O)O` (configuration not stated), the LC retention time was 6.31 min.

As for `Nc1ccccc1C(=O)CC(N)C(=O)O` (configuration not stated), the LC retention time is 9.21 min.

For the compound `CC(CCC(=O)O)C1CCC2C3C(O)CC4CC(O)CCC4(C)C3CC(O)C12C` (configuration not stated), the LC retention time is 24.2 min. For the compound `NC(=O)CC(N)C(=O)O` (configuration not stated), the LC retention time was 3.75 min. Consider `CCC=CCC=CCC=CCC=CCC=CCCCC(=O)O`, for which the LC retention time is 27.5 min.

Consider `CC(=O)NCCc1c[nH]c2ccc(O)cc12`, for which the LC retention time is 12.2 min. Next, `O=C(O)CCCC(=O)C(=O)O`: 7.25 min.

For `CCCCCC=CCC=CCCCCCCCC(=O)O`, the LC retention time was 28.8 min.

As for `O=C(O)c1cc(=O)c2cccc(O)c2[nH]1`, the LC retention time was 9.89 min. `O=C(O)Cc1c[nH]c2ccc(O)cc12`: the LC retention time was 12.1 min. On to `CC(C)C(N)C(=O)O` (configuration not stated), for which the LC retention time is 9.34 min. With `CC(C)CC(N)C(=O)O` (configuration not stated), the LC retention time was 11.7 min.

On to `NCCCCN`, for which the LC retention time was 17.6 min. Regarding `CC(N)C(=O)O` (configuration not stated), the LC retention time was 6.78 min.

For `NC(=O)CCC(N)C(=O)O` (configuration not stated), the LC retention time is 4.45 min. As to `CCCCCC(C)C(=O)O` (configuration not stated), the LC retention time is 20.6 min.
